Experimental data published in BindingDB's records for doi:10.1021/jm800930w (Kyoto University, 2008).

Target: KiSS-1 receptor (Homo sapiens, UniProt Q969F8)
Assay: Receptor Binding Assay
Conditions: pH 7.3; 25 °C

Sequence of KiSS-1 receptor (Q969F8 whole entry): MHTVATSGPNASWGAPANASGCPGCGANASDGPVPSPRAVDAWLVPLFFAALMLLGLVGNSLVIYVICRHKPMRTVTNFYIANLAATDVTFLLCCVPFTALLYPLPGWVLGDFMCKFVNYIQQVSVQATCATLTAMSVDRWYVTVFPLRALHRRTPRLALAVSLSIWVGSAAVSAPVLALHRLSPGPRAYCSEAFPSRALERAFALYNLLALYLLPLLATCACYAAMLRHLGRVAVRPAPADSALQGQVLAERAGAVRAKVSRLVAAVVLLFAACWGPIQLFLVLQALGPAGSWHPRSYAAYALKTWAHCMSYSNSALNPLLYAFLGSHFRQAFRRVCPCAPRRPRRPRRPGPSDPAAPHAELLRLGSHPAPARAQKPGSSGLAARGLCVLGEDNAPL

IC50: 0.12 nM
Compound: CC(C)C[C@H](NC(=O)CNC(=O)[C@H](Cc1ccccc1)NC(=O)[C@H](CO)NC(=O)[C@H](CC(N)=O)NC(=O)[C@H](Cc1c[nH]c2ccccc12)NC(=O)[C@H](CC(N)=O)NC(=O)[C@@H](N)Cc1ccc(O)cc1)C(=O)N[C@@H](CCCNC(=N)N)C(=O)N[C@@H](Cc1ccccc1)C(N)=O [(2S)-2-[(2S)-2-[(2S)-2-[(2S)-2-amino-3-(4-hydroxyphenyl)propanamido]butanediamido]-3-(1H-indol-3-yl)propanamido]-N-[(1S)-1-{[(1S)-1-[({[(1S)-1-{[(1S)-4-carbamimidamido-1-{[(1S)-1-carbamoyl-2-phenylethyl]carbamoyl}butyl]carbamoyl}-3-methylbutyl]carbamoyl}methyl)carbamoyl]-2-phenylethyl]carbamoyl}-2-hydroxyethyl]butanediamide]
